Laboratory results taken from patent US5338874A, “Cis oxalato (trans 1-1,2-cyclohexanediamine) PT(II) having optically high purity” (Tanaka Kikinzoku Kogyo K.K., priority 1993, dated 1994).

Tested on: L1210
Experiment: Tumor resistance against L1210 (i.p. transplanted, CDF1 mice), T/C
Assay type: in vivo
Parameters: key to Toxic mark (T: large weight loss): P: Effective (Over 125%); Toxic (Large Weight Loss)
Settings: for Cured mice out of six / Toxic mark (T: large weight loss): i.p. on days 1, 5 and 9
Method: The test was conducted by prescribing L1210 in a peritoneal cavity of six CDF1 mice/one group (the number of transplanted cells is […] per mouse and prescribing the medicine in the poritoncal cavity on a first day, a fifth day and a ninth day.

Row | Structure (SMILES) | Cured mice out of six (6.25 mg/kg) | Cured mice out of six (12.5 mg/kg) | Toxic mark (T: large weight loss) (25 mg/kg) | Tumor Resistance T/C (%) (25 mg/kg, i.p. on days 1, 5 and 9, six CDF1 mice/group) | Cured mice out of six (6.25 mg/kg, listed as Example 2) | Cured mice out of six (6.25 mg/kg, listed as Example 3) | Cured mice out of six (12.5 mg/kg, listed as Example 2) | Cured mice out of six (12.5 mg/kg, listed as Example 3) | Activity against tumor leukemia L1210 (in words) (high optical purity compound)
1 | N[C@@H]1CCCC[C@H]1N.O=C([O-])C(=O)[O-].[Pt+2] (relative stereo) [Comp. Ex., cis-oxalate(trans-1-1,2-cyclohexanediamine) Pt(II), reference compound] | 1/6 | 4/6 | T | 81% | – | – | – | – | –
2 | N[C@@H]1CCCC[C@H]1N.O=C([O-])C(=O)[O-].[Pt+2] (relative stereo) [Example 1, cis-oxalato (trans-1-1,2-cyclohexanediamine) Pt(II)] | 3/6 | 2/6 | T | – | 3/6 | 3/6 | 2/6 | 2/6 | active against a tumor "leukomia L1210"
